Here are results for 14 molecules from patent US20240018157A1, “CYCLIC COMPOUNDS AND METHODS OF USING SAME” (Schrödinger, Inc., priority 2019, published 2024).

Assay [1] concerns the target T1, full-length MALT1 protein His-MALT1(1-824) (Homo sapiens (Human), UniProt Q9UDY8). The experiment in a line: MALT1 protease assay, Assay 1 (2 nM MALT1, Ac-LRSR-AMC substrate). In kind it is biochemical. Conditions: 2 nM MALT1, 50 μM Ac-LRSR-AMC, 2 h pre-incubation, 8 hr incubation at RT. The method, then:
MALT1 protease activity was assessed in an in vitro assay using a tetrapeptide as substrate and full-length MALT1 protein His-MALT1(1-824) purified from baculovirus-infected insect cells.
The final assay buffer includes 1 nM (Assay 2) or 2 nM (Assay 1) of MALT1 full-length protein, 50 μM Ac-LRSR-AMC substrate, 50 mM Tris pH 7.5, 600 mM Sodium Citrate, 1 mM DTT, 1 mM EDTA, and 0.05% BSA in 384-well plate format using black microtiter square well plates (Optiplate 384-F, Perkin Elmer).
Test compounds were dissolved in 100% DMSO at stock of 10 mM, with final DMSO concentration 0.1%. Test compounds were pre-incubated with MALT1 protein for 2 h at room temperature. Substrate was added after the pre-incubation and fluorescence signal was measured using Envision at excitation 355 nm and emission 460 nm after 8 hr incubation at RT. Increase in the assay signal was linear over this period and proportional with increase in the enzyme content.
The fluorescence units were transformed to percentage of remaining activity by using the high control (HC, median of fluorescence signal from wells containing MALT1 protein, substrate, and DMSO) and low control (LC, median of fluorescence signal from wells with substrate only) with the formula below: […]
IC50 and Hill coefficient were obtained using Graph Pad Prism (Graph Pad software, Inc, USA) with non-linear regression analysis.

Assay [2] deals with IL10 secretion, OCI-LY10 cells. The experiment in a line: Human IL10 secretion assay, Assay 2 (Meso Scale Discovery). It is filed as cell-based. Conditions: 24 h incubation, MSD, read-out: IL-10 Secretion IC50 [nM] Assay 2. The method, then:
(§1) IL10 is one of the cytokines that are regulated via activation of NF-kB signaling. For example, in ABC-DLBCL cell lines, the activated NF-kB signaling leads to increased IL10 secretion. Inhibition of NF-kB signaling has been shown leading to decreased IL10 secretion.
Assay 2: OCI-LY10 cells were seeded in IMEM supplemented with 20% fetal bovine serum at 4.8×10^5 cells per 160 μL per well in 96-well V-bottom cell culture plates (coming, 3894), treated with 120 nL of 3-fold serial compound dilutions, starting at 4 mM. The final vehicle concentration was 0.075% DMSO in all wells. After a 24 h incubation, human IL-10 pre-coated plates (Meso Scale Discovery) were washed 3 times with PBST, and 50 μL culture medium was aspirated into the MSD plate and incubated at 4° C. overnight. The supernatant was then discarded and the wells were washed 3 times with PBST. SULFO-TAG Anti-human IL-10 Antibody (50×) was diluted 50 fold according to the Meso Scale Protocol, then 25 μL of SULFO-TAG Anti-human IL-10 Antibody (1×) was added. After 2 h of incubation at RT, the supernatant was discarded and the well was washed 3 times with PBST. 2× read buffer was added and the signal was read on an MSD Sector S600. The effect of a particular compound on IL10 secretion is shown relative to the effect of DMSO; set as 100%. IC50 values (nM) were determined using 4-parametric curve-fitting.

Assay [3] concerns the target T1, full-length MALT1 protein His-MALT1(1-824). The experiment in a line: MALT1 protease assay, Assay 2 (1 nM MALT1, Ac-LRSR-AMC substrate). Particulars: 1 nM MALT1, 50 μM Ac-LRSR-AMC, 2 h pre-incubation, 8 hr incubation at RT. It is filed as biochemical. The gist of the method: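 His-MALT1(1-824) from baculovirus-infected insect cells at 1 nM, preincubated 2 h at RT with compound (0.1% DMSO), then 50 μM Ac-LRSR-AMC in 50 mM Tris pH 7.5, 600 mM sodium citrate, 1 mM DTT, 1 mM EDTA, 0.05% BSA. Fluorescence (ex 355/em 460 nm) after 8 h at RT, normalized to enzyme and substrate-only controls. IC50 and Hill coefficient by non-linear regression.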

Assay [4] has as its system IL10 secretion, OCI-LY10 cells. The experiment in a line: Human IL10 secretion assay, Assay 1 (HTRF). It is filed as cell-based. Particulars: 24 h incubation, read-out: IL-10 Secretion IC50 [nM] Assay 1. The method, then:
as §1
Assay 1: OCI-LY10 cells were seeded in IMEM supplemented with 20% fetal bovine serum at 3×10^5 cells per well in 96-well round bottom plates (Corning 3799, Corning), treated with 100 nL of 3-fold serial compound dilutions, starting at 10 mM. The final vehicle concentration was 0.1% DMSO in all wells. After 24 h incubation, the cells were transferred to 96-PCR plates (Axygen: PCR-96-FLT-C) and centrifuged, then 16 μL of cell culture media was transferred to HTRF plates and IL10 levels were measured using human IL-10 Assay Kits (Cisbio) using HTRF format. The signals were transformed to percentage of remaining activity by using the high control (HC, median of signal from wells containing cells treated with DMSO) and low control (LC, median of signal from wells with no cells). IC50 values (nM) were determined using 4-parametric curve-fitting and Hill coefficient were obtained using Graph Pad Prism (Graph Pad software, Inc, USA) with non-linear regression analysis.
(Time-resolved FRET reads energy transfer from a long-lived donor to a nearby acceptor.)

Each structure is given as a SMILES string.

T1 sequence (Q9UDY8 whole entry): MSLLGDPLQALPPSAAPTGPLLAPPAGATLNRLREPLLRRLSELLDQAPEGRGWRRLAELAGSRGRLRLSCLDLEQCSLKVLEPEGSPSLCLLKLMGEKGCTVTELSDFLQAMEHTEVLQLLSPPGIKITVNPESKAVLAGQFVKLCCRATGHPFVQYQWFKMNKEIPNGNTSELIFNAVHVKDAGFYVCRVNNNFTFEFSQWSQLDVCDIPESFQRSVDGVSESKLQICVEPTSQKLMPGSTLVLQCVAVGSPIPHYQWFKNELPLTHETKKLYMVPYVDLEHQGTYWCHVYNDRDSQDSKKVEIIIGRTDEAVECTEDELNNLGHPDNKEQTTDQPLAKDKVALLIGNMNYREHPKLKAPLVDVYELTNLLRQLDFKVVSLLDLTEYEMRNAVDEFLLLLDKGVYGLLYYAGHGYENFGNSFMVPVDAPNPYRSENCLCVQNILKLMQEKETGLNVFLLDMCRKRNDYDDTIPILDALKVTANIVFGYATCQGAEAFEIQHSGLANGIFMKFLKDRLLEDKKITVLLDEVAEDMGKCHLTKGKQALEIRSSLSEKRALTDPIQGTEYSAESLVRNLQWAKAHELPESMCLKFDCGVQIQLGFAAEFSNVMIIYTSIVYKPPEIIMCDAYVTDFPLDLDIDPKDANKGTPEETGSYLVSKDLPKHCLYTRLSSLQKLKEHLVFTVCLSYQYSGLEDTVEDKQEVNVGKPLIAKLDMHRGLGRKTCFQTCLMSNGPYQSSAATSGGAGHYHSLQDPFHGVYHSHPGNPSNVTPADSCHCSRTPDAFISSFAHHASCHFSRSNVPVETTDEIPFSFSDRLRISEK

The IC50 is the concentration needed to halve the response being measured. As to `CC1(C(F)(F)F)CN(C(=O)Nc2cnc(-n3nccn3)c(Cl)c2)c2cnc3cc(C#N)nn3c21` (stereo not shown) [compound 17, N-[5-chloro-6-(triazol-2-yl)-3-pyridyl]-11-cyano-3-methyl-3-(trifluoromethyl)-1,5,8,12-tetrazatricyclo[7.3.0.02,6]dodeca-2(6),7,9,11-tetraene-5-carboxamide], the IC50 in assay [1] was 10 to 100 nM.

For `COc1cn(-c2ncc(NC(=O)N3C[C@@](C)(C(F)(F)F)c4c3cnc3cc(Cl)nn43)cc2Cl)nn1` [compound 95, (R)-2-chloro-N-(5-chloro-6-(4-methoxy-1H-1,2,3-triazol-1-yl)pyridin-3-yl)-8-methyl-8-(trifluoromethyl)-7,8-dihydro-6H-pyrazolo[1,5-a]pyrrolo[2,3-e]pyrimidine-6-carboxamide], the half-inhibitory concentration (IC50) in assay [2] and in assay [3] was 10 to 100 nM each time.

In the case of `C[C@@]1(C(F)(F)F)CN(C(=O)Nc2cc(C(F)(F)F)ncc2F)c2cnc3cc(Cl)nn3c21` [compound 96, (R)-2-chloro-N-(5-fluoro-2-(trifluoromethyl)pyridin-4-yl)-8-methyl-8-(trifluoromethyl)-7,8-dihydro-6H-pyrazolo[1,5-a]pyrrolo[2,3-e]pyrimidine-6-carboxamide], the IC50 fell in the range of 100 to 1000 nM in assay [2] and 10 to 100 nM in assay [3].

`CN1CC[C@H](Oc2cc(NC(=O)N3C[C@@](C)(C(F)(F)F)c4c3cnc3cc(Cl)nn43)cc(C(F)F)n2)C1` [compound 111, (R)-2-chloro-N-(2-(difluoromethyl)-6-(((S)-1-methylpyrrolidin-3-yl)oxy)pyridin-4-yl)-8-methyl-8-(trifluoromethyl)-7,8-dihydro-6H-pyrazolo[1,5-a]pyrrolo[2,3-e]pyrimidine-6-carboxamide]: the IC50 in assay [2], in assay [4] and in assay [3] was 10 to 100 nM each time.

In the case of `C[C@@]1(C(F)(F)F)CN(C(=O)Nc2cnc(N3CCOC3=O)c(C(F)F)c2)c2cnc3cc(Cl)nn3c21` [compound 113, (R)-2-chloro-N-(5-(difluoromethyl)-6-(2-oxooxazolidin-3-yl)pyridin-3-yl)-8-methyl-8-(trifluoromethyl)-7,8-dihydro-6H-pyrazolo[1,5-a]pyrrolo[2,3-e]pyrimidine-6-carboxamide], the IC50 in assay [2] is 10 to 100 nM; in assay [4] it was 100 to 1000 nM; in assay [3], 10 to 100 nM.

Turning to `CN(C)C(=O)c1ncc(NC(=O)N2C[C@@](C)(C(F)(F)F)c3c2cnc2cc(Cl)nn32)cc1Cl` [compound 123, (R)-2-chloro-N-(5-chloro-6-(dimethylcarbamoyl)pyridin-3-yl)-8-methyl-8-(trifluoromethyl)-7,8-dihydro-6H-pyrazolo[1,5-a]pyrrolo[2,3-e]pyrimidine-6-carboxamide], the IC50 in assay [2], in assay [4] and in assay [3] was 10 to 100 nM throughout.

For the molecule `C[C@@]1(C(F)(F)F)CN(C(=O)Nc2cc(OC(F)F)cc(O[C@H]3CCNC3)n2)c2cnc3cc(Cl)nn3c21` [compound 133, (R)-2-chloro-N-(4-(difluoromethoxy)-6-(((S)-pyrrolidin-3-yl)oxy)pyridin-2-yl)-8-methyl-8-(trifluoromethyl)-7,8-dihydro-6H-pyrazolo[1,5-a]pyrrolo[2,3-e]pyrimidine-6-carboxamide], the IC50 in assay [2] is 10 to 100 nM; in assay [4], 100 to 1000 nM; in assay [3], 10 to 100 nM.

Regarding `Cc1cn2ncc3c(c2n1)C(C)(C)CN3C(=O)Nc1cnc(-n2nccn2)c(Cl)c1` [compound 134, N-(5-chloro-6-(2H-1,2,3-triazol-2-yl)pyridin-3-yl)-2,9,9-trimethyl-8,9-dihydro-7H-imidazo[1,2-b]pyrrolo[3,2-d]pyridazine-7-carboxamide], the IC50 in assay [2] is 10 to 100 nM; in assay [4], 100 to 1000 nM; in assay [3] it was 10 to 100 nM.

Take `CN(C(=O)c1ncc(NC(=O)N2C[C@@](C)(C(F)(F)F)c3c2cnc2cc(Cl)nn32)cc1C(F)F)C1CC1` [compound 151, (R)-2-chloro-N-(6-(cyclopropyl(methyl)carbamoyl)-5-(difluoromethyl)pyridin-3-yl)-8-methyl-8-(trifluoromethyl)-7,8-dihydro-6H-pyrazolo[1,5-a]pyrrolo[2,3-e]pyrimidine-6-carboxamide]: the IC50 in assay [2] and in assay [4] was 10 to 100 nM each time.

For `C[C@@]1(C(F)(F)F)CN(C(=O)Nc2cnc(-n3nccn3)c(C(F)(F)F)c2)c2cnc3cc(F)nn3c21` [compound 181, (R)-N-(6-(2H-1,2,3-triazol-2-yl)-5-(trifluoromethyl)pyridin-3-yl)-2-fluoro-8-methyl-8-(trifluoromethyl)-7,8-dihydro-6H-pyrazolo[1,5-a]pyrrolo[2,3-e]pyrimidine-6-carboxamide], the IC50 in assay [2] and in assay [4] was 10 to 100 nM throughout.

For `CC(O)c1cnnn1-c1ncc(NC(=O)N2C[C@@](C)(C(F)(F)F)c3c2cnc2cc(F)nn32)cc1C(F)F` (stereo partly drawn) [compound 188, (8R)-N-(5-(difluoromethyl)-6-(5-(1-hydroxyethyl)-1H-1,2,3-triazol-1-yl)pyridin-3-yl)-2-fluoro-8-methyl-8-(trifluoromethyl)-7,8-dihydro-6H-pyrazolo[1,5-a]pyrrolo[2,3-e]pyrimidine-6-carboxamide], the values for the IC50 in assay [2], in assay [4] and in assay [3] were 10 to 100 nM, 100 to 1000 nM and 10 to 100 nM, respectively.

As to `CC(O)c1cnn(-c2ncc(NC(=O)N3C[C@@](C)(C(F)(F)F)c4c3cnc3cc(F)nn43)cc2C(F)F)n1` (stereo partly drawn) [compound 191, (8R)-N-(5-(difluoromethyl)-6-(4-(1-hydroxyethyl)-2H-1,2,3-triazol-2-yl)pyridin-3-yl)-2-fluoro-8-methyl-8-(trifluoromethyl)-7,8-dihydro-6H-pyrazolo[1,5-a]pyrrolo[2,3-e]pyrimidine-6-carboxamide], the IC50 in assay [2] and in assay [4] was 10 to 100 nM throughout.

In the case of `O=C(Nc1cnc(-n2nccn2)c(Cl)c1)N1CC(O)(C(F)(F)F)c2c1cnc1cc(Cl)nn21` (stereo not shown) [compound 201, 2-chloro-N-(5-chloro-6-(2H-1,2,3-triazol-2-yl)pyridin-3-yl)-8-hydroxy-8-(trifluoromethyl)-7,8-dihydro-6H-pyrazolo[1,5-a]pyrrolo[2,3-e]pyrimidine-6-carboxamide], the IC50 in assay [2] and in assay [4] was 10 to 100 nM in each case.

In the case of `C[C@@]1(C(F)(F)F)CN(C(=O)Nc2cnc(-n3cncn3)c(Cl)c2)c2cnc3cc(F)nn3c21` [compound 202, (R)-N-(5-chloro-6-(1H-1,2,4-triazol-1-yl)pyridin-3-yl)-2-fluoro-8-methyl-8-(trifluoromethyl)-7,8-dihydro-6H-pyrazolo[1,5-a]pyrrolo[2,3-e]pyrimidine-6-carboxamide], the concentration for half-maximal inhibition (IC50) in assay [2] fell in the range of 10 to 100 nM; in assay [4], 100 to 1000 nM; in assay [3], 10 to 100 nM.
